From US20080103152A1, “Novel Diazabicyclononene Derivative” (Actelion Pharmaceuticals Ltd, priority 2004, published 2008)

What was measured:
[1] = target: T1, recombinant human renin (Homo sapiens, UniProt P00797); assay: Primary renin inhibition assay: IC50 in buffer, 384 well MTP (Ang I measured by EIA); type: biochemical; conditions: human tetradecapeptide substrate, 37° C. for 3 h, read-out: IC50 of renin inhibition (Ang I decrease)
T1 sequence (P00797 67-406): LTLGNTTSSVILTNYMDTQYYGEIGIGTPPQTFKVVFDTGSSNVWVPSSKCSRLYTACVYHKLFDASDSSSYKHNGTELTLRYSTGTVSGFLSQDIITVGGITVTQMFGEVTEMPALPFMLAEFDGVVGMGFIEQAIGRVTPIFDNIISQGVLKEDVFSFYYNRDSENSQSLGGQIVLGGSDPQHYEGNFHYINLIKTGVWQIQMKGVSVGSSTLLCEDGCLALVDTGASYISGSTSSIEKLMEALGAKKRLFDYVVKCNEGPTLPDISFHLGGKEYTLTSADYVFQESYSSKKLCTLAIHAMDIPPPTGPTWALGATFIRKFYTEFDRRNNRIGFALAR
Description: 1. Enzyme Immuno Assay (EIA) to Estimate Ang I Accumulation and Renin Inhibition
1.1 Preparation of Ang I-BSA Conjugate
1.3 mg (1 μmol) of Ang I [1-10 (Bachem, H-1680)] and 17 mg (0.26 μmol) of BSA (Fluka, 05475) were dissolved in 4 mL of 0.1M phosphate buffer, pH 7.4, after which 2 mL of a 1:100 dilution of glutaraldehyde in H2O (Sigma G-5882) was added dropwise. The mixture was incubated overnight at 4° C., then dialyzed against 2 liters of 0.9% NaCl, twice for 4 h at rt, followed by dialysis against 2 liters of PBS 1× overnight at rt. The solution was then filtered with a Syringe filter, 0.45 μm (Nalgene, Cat. No. 194-2545). The conjugate can be stored in polypropylene tubes in 0.05% sodium azide at 4° C. for at least 12 months.
1.2 Preparation of BSA-Ang I Coated MTP […]
The renin assay was adapted from an assay described before (Fischli W. et al., Hypertension, 1991, 18:22-31) and consists of two steps: in the first step, recombinant human renin is incubated with its substrate (commercial human tetradecapeptide renin substrate) to create the product Angiotensin I (Ang I). In the second step, the accumulated Ang I is measured by an immunological assay (enzyme immuno assay, EIA). […]

[2] = system: double transgenic rats with human renin and human angiotensinogen; assay: Hemodynamic measurements (telemetry method), mean arterial blood pressure; type: in vivo, rat; conditions: for blood pressure decrease (maximal decrease of mean arterial pressure versus control group): hypertensive female double transgenic rats
Description: Hemodynamic Measurements (Telemetry Method)
Animals—Female double transgenic rats with human renin and human angiotensinogen were purchased from RCC Ltd, Füllingsdorf, Switzerland. All animals were maintained under identical conditions and had free access to normal pelleted rat chow and water. Rats were initially treated with enalapril (1 mg/kg/day) during 2 months. After approximately two weeks following cessation of enalapril treatment the double transgenic rats become hypertensive and reach mean arterial blood pressures in the range of 160-170 mmHg.
Transmitter implantation—The rats were anaesthetised with a mixture of 90 mg/kg Ketamin-HCl (Ketavet, Parke-Davis, Berlin FRG) and 10 mg/kg xylazin (Rompun, Bayer, Leverkusen, FRG) i.p. The pressure transmitter was implanted under aseptic conditions into the peritoneal cavity with the sensing catheter placed in the descending aorta below the renal arteries pointing upstream. The transmitter was sutured to the abdominal musculature and the skin closed.
Telemetry-System—Telemetry units were obtained from Data Sciences (St. Paul, Minn.). […] The tip of the catheter was filled with a viscous gel that prevents blood reflux and was coated with an antithrombogenic film to inhibit thrombus formation. The implants (length=[…], diameter=1.2 cm) weighted 9 g and have a typical battery life of 6 months. A receiver platform (RPC-1, Data Sciences) connected the radio signal to digitized input that was sent to a dedicated personal computer (Compaq, deskpro). Arterial pressures were calibrated by using an input from an ambient-pressure reference (APR-1, Data Sciences). Systolic, mean and diastolic blood pressure was expressed in millimeter of mercury (mmHg).
[…] The effect of the test substance is expressed as maximal decrease of mean arterial pressure (MAP) in the treated group versus the control group.

## O=C(C1=C(c2ccc(CCCOc3c(F)ccc(F)c3Cl)cc2)C[C@@H]2CNC[C@H]1N2)N(Cc1cccc(Cl)c1Cl)C1CC1 [Compound (I′), (1R,5S)-7-{4-[3-(2-Chloro-3,6-difluorophenoxy)propyl]phenyl}-3,9-diazabicyclo[3.3.1]non-6-ene-6-carboxylic acid cyclopropyl-(2,3-dichlorobenzyl)amide]
[1]
  IC50: 0.5 nM
[2]; oral gavage, double transgenic rats
  activity in the animal model (in words): active
[2]; single oral dose of 3 mg/kg
  blood pressure decrease (maximal decrease of mean arterial pressure versus control group): 13 mmHg
[2]; single oral dose of 10 mg/kg
  blood pressure decrease (maximal decrease of mean arterial pressure versus control group): 26 mmHg
